# Experimental data reported in ChEMBL document CHEMBL4130486, “Design, synthesis and immunological evaluation of novel amphiphilic desmuramyl peptides” (Eur J Med Chem, 2017).
# The source made the active and inactive calls. The rule behind the calls is not given here.
# Key:
# THP-1 [1] = assay: (§1) Immunomodulatory activity in PMA-differentiated human THP1 cells assessed as increase in LPS-induced ICAM1 expression by measuring fluorescence intensity at 8 uM pre-incubated for 1 hr before LPS stimulation and further incubated for 20 hrs by immunostaining and flow cytometry relative to LPS alone; type: functional
# THP-1 [2] = assay: Immunomodulatory activity in human THP1 cells assessed as increase in LPS-induced ICAM1 expression at 1 to 32 uM uM incubated for 21 hrs by immunostaining and flow cytometry; type: functional, cell-based
# THP-1 [3] = assay: Immunomodulatory activity in human THP1 cells assessed as increase in ICAM1 expression at 20 uM incubated for 21 hrs by immunostaining and flow cytometry; type: functional, cell-based
# THP-1 [4] = assay: Immunomodulatory activity in PMA-differentiated human THP1 cells assessed as increase in TNFalpha production at 1 to 30 uM incubated for 24 hrs by ELISA; type: functional, cell-based
# THP-1 [5] = assay: Immunomodulatory activity in PMA-differentiated human THP1 cells assessed as increase in TNFalpha production at 30 uM incubated for 24 hrs by ELISA; type: functional, cell-based
# THP-1 [6] = assay: Immunomodulatory activity in PMA-differentiated human THP1 cells assessed as increase in ICAM1 expression by measuring fluorescence intensity at 20 uM incubated for 21 hrs by immunostaining and flow cytometry (reference value: 602.95 No unit); type: functional
# THP-1 [7] = assay: as §1, with “=>16” for “8”; type: functional, cell-based
# THP-1 [8] = assay: Immunomodulatory activity in human THP1 cells assessed as increase in LPS-induced ICAM1 expression at 16 uM uM incubated for 21 hrs by immunostaining and flow cytometry; type: functional
# THP-1 [9] = assay: as §1, with “<=4” for “8”; type: functional, cell-based
# THP-1 [10] = assay: Immunomodulatory activity in PMA-differentiated human THP1 cells assessed as increase in TNFalpha production by measuring TNFalpha level at 15 uM incubated for 24 hrs by ELISA; type: functional
# THP-1 [11] = assay: Toxicity in PMA-differentiated human THP1 cells assessed as cell death at 0.1 to 64 uM by trypan blue dye based assay; settings: thp-1, 64 µM
# THP-1 [12] = assay: Immunomodulatory activity in PMA-differentiated human THP1 cells assessed as increase in LPS-induced ICAM1 expression by measuring fluorescence intensity at 20 uM pre-incubated for 1 hr before LPS stimulation and further incubated for 20 hrs by immunostaining and flow cytometry relative to LPS alone; type: functional, cell-based
SMILES,Activity (THP-1 [1]),Activity (THP-1 [2]),Activity (THP-1 [3]),Activity (THP-1 [4]),Activity (THP-1 [5]),Flu intensity (THP-1 [6]),Activity (THP-1 [7]),Activity (THP-1 [8]),Activity (THP-1 [9]),Activity (THP-1 [10]),Activity (THP-1 [11]),Activity (THP-1 [12])
CCCCCCNC(=O)CC[C@@H](NC(=O)[C@H](C)NC(=O)COc1cccc(N(CCCO)CCCO)c1)C(N)=O,<=33%,Active,Active,Active,inactive,777.29,inactive,<=46%,Active,3606 pg/mL,Non-Toxic,–
CCCCOC(=O)[C@@H](CCC(N)=O)NC(=O)[C@H](C)NC(=O)[C@@H](C)O[C@H]1[C@H](O)[C@@H](CO)OC(O)[C@@H]1NC(C)=O (some centres not stated) [MURABUTIDE],–,–,Active,–,inactive,1436.05,–,–,–,2694 pg/mL,–,Active
CCCCCCNC(=O)CC[C@@H](NC(=O)[C@H](C)NC(=O)COc1cccc(NCCCO)c1)C(N)=O,–,Active,Active,Active,inactive,885.76,–,–,–,3622 pg/mL,–,–
